# Test results published in patent US5298494A, “Monosaccharides having anti-proliferation and anti-inflammatory activity, compositions and uses thereof” (Greenwich Pharmaceuticals Incorporated, priority 1993, dated 1994).
# Tests used:
# [1] = test system: BUD-8 human skin fibroblasts; assay: Fibroblast assay: proliferation of BUD-8 skin cell fibroblasts; format: cell-based
# Experimental: The human skin cell fibroblast line, BUD-8 was obtained prior to each assay from the American Type Culture Collection. This is a fibroblast-like cell line which was originally derived from the normal skin of a person.
# BUD-8 cell cultures were expanded for use in 25 cm^2 flasks at 37° C. in an atmosphere of 5% CO2 in air. At approximately 4-5 five day intervals, or when confluence was reached, the cells were passaged. This was accomplished by detaching the cells with a Teflon scraper, washing and reseeding the cells at a lower density into fresh tissue culture flasks.
# (§1) The effect of the compound of the present invention on the proliferative capacity of human BUD-8 skin fibroblasts was measured with the use of a ^3 H-thymidine incorporation assay using culture conditions which were similar to those used for a Con-A blastogenesis assay, described previously. Cultured skin cells were detached from the surface of tissue culture flasks mechanically with a Teflon scraper. The cells were washed, resuspended in incubation medium and the viabilities were determined. These cells were then plated in triplicate at a density of 2×10^3 cells/0.1 ml/microtiter well for the proliferation assay and a density of 1×10^4 cells/0.1 ml/microtiter well for the assays to quantitate PGE2 and LTB4. To these cells was added incubation medium containing indomethacin to inhibit prostaglandin production, or nordihydroguaiaretic acid (NDGA) to inhibit leukotriene production (positive controls).
# After 3 days of culture, 1 uCi ^3 H-thymidine was added in a 50 ul volume to each culture well of the microtiter plates. Eighteen hours later, each of the BUD-8 cultures was examined morphologically for evidence of compound-induced toxicity such as cell rounding or granularity. The thymidine-pulsed cells were then precipitated and the amount of ^3 H-thymidine incorporated was counted in a liquid scintillation counter.
# The concentrations of the compounds of the invention which were used in these assays were:
# The incubation medium used for culturing the BUD-8 cells was RPMI-1640 medium containing 10% fetal bovine serum, 100 ug/ml streptomycin, 100 U/ml penicillin, 0.2M Hepes buffer solution, 5×10^-5 M 2-mercaptoethanol and 2 mM glutamine.
# [2] = test system: LTB4 production by BUD-8 skin cell fibroblasts; assay: LTB4 production by BUD-8 skin cell fibroblasts (radioimmunoassay); format: cell-based, human
# Experimental: as §1
# (§2) After 18 hours of culture, samples of the BUD-8 skin cell supernatants were collected from one set of microtiter plates and frozen until assayed for PGE2 or for LTB4 content using the radioimmunoassays described below.
# Levels of LTB4 in aliquots of BUD-8 skin cell cultures supernatants were quantitated by radioimmunoassay (New England Nuclear). Briefly, into each polyproplyene tube were mixed 0.1 ml anti-LTB4, 0.1. ml ^3 H-LTB4 and 0.1 ml LTB4 standard or LTB4 containing sample. The BUD-8 skin cell culture supernatants were used directly in the radioimmunoassay. Tubes were refrigerated overnight. A charcoal solution (0.5 ml of 0.5% charcoal Norit A) was added and each tube was centrifuged. The radioactivity in the supernatant was then counted in a liquid scintillation counter.
# [3] = test system: PGE2 production by BUD-8 skin cell fibroblasts; assay: PGE2 production by BUD-8 skin cell fibroblasts (radioimmunoassay); format: cell-based, human
# Experimental: as §1, §2
# A radioinmunoassay (New England Nuclear) was used to quantitate PGE2 levels in BUD-8 skin cell culture supernatants. Briefly, into each polypropylene tube were mixed 0.1 ml anti-PGE2, 0.1 ml ^125 1-PGE2 and 0.1 ml PGE2 standard or PGE2 containing sample. The BUD-8 skin culture supernatants were diluted 1:2 prior to addition to the radioimmunoassay. Tubes were refrigerated overnight. A polyethylene glycol solution (16%, 6,000 m.w.) was then added to precipitate immune complexes and the radioactivity in the precipitate was counted in a gamma counter.
smiles,measurement,setting,value
"CC1(C)OC2OC3C(O)COC3(O)C2O1 [IV, (3S) 1,2-O-isopropylidene-α-D-ribo-hexos-3-ulose-1,4:3,6-difuranose]",^3 H-Thymidine uptake by BUD-8 skin cells,[1]; 1 ug/ml,"3,607 ± 87 cpm"
same,^3 H-Thymidine uptake by BUD-8 skin cells,[1]; 10 ug/ml,"4,077 ± 374 cpm"
same,^3 H-Thymidine uptake by BUD-8 skin cells,[1]; 25 ug/ml,"3,791 ± 451 cpm"
same,^3 H-Thymidine uptake by BUD-8 skin cells,[1]; 100 ug/ml,"4,032 ± 3 cpm"
same,^3 H-Thymidine uptake by BUD-8 skin cells,[1]; 300 ug/ml,"2,882 ± 387 cpm"
same,^3 H-Thymidine uptake by BUD-8 skin cells,[1]; 750 ug/ml,"2,658 ± 247 cpm"
same,inhibition at 1 µg/mL,"[1]; Homo sapiens, Skin fibroblast, 1 ug/ml, read-out: % Effect on BUD-8 proliferation",51%
same,inhibition at 10 µg/mL,"[1]; Homo sapiens, Skin fibroblast, 10 ug/ml, read-out: % Effect on BUD-8 proliferation",44%
same,inhibition at 25 µg/mL,"[1]; Homo sapiens, Skin fibroblast, 25 ug/ml, read-out: % Effect on BUD-8 proliferation",48%
same,inhibition at 100 µg/mL,"[1]; Homo sapiens, Skin fibroblast, 100 ug/ml, read-out: % Effect on BUD-8 proliferation",45%
same,inhibition at 300 µg/mL,"[1]; Homo sapiens, Skin fibroblast, 300 ug/ml, read-out: % Effect on BUD-8 proliferation",61%
same,inhibition at 750 µg/mL,"[1]; Homo sapiens, Skin fibroblast, 750 ug/ml, read-out: % Effect on BUD-8 proliferation",64%
same,effect on LTB4 production in words,[2],significantly decrease of levels of both pro-inflammatory mediators are seen at several non-toxic doses
same,LTB4 in supernatant (Table XXI),[2]; 1 ug/ml,36.4 ± 5.2 pg LTB4 100 ul supernatant
same,calculated LTB4 produced/10^5 BUD-8 cells,[2]; 1 ug/ml,"1,621 pg per 10^5 cells"
same,LTB4 in supernatant (Table XXI),[2]; 10 ug/ml,19.9 ± 3.8 pg LTB4 100 ul supernatant
same,LTB4 in supernatant (Table XXI),[2]; 25 ug/ml,17.7 ± 3.8 pg LTB4 100 ul supernatant
same,calculated LTB4 produced/10^5 BUD-8 cells,[2]; 25 ug/ml,683 pg per 10^5 cells
same,LTB4 in supernatant (Table XXI),[2]; 100 ug/ml,17.3 ± 0.9 pg LTB4 100 ul supernatant
same,calculated LTB4 produced/10^5 BUD-8 cells,[2]; 100 ug/ml,665 pg per 10^5 cells
same,LTB4 in supernatant (Table XXI),[2]; 300 ug/ml,25.7 ± 5.0 pg LTB4 100 ul supernatant
same,calculated LTB4 produced/10^5 BUD-8 cells,[2]; 300 ug/ml,"1,083 pg per 10^5 cells"
same,LTB4 in supernatant (Table XXI),[2]; 750 ug/ml,23.5 ± 0.2 pg LTB4 100 ul supernatant
same,calculated LTB4 produced/10^5 BUD-8 cells,[2]; 750 ug/ml,973 pg per 10^5 cells
same,inhibition at 1 µg/mL,"[2]; Homo sapiens, Fibroblast, 18 h, 1 ug/ml, read-out: % Effect on LTB4 production",-2%
same,inhibition at 10 µg/mL,"[2]; Homo sapiens, Fibroblast, 18 h, 10 ug/ml, read-out: % Effect on LTB4 production",45%
same,inhibition at 25 µg/mL,"[2]; Homo sapiens, Fibroblast, 18 h, 25 ug/ml, read-out: % Effect on LTB4 production",51%
same,inhibition at 100 µg/mL,"[2]; Homo sapiens, Fibroblast, 18 h, 100 ug/ml, read-out: % Effect on LTB4 production",52%
same,inhibition at 300 µg/mL,"[2]; Homo sapiens, Fibroblast, 18 h, 300 ug/ml, read-out: % Effect on LTB4 production",28%
same,inhibition at 750 µg/mL,"[2]; Homo sapiens, Fibroblast, 18 h, 750 ug/ml, read-out: % Effect on LTB4 production",35%
same,effect on PGE2 production in words,[3],significantly decrease of levels of both pro-inflammatory mediators are seen at several non-toxic doses
same,PGE2 in supernatant,[3]; 1 ug/ml,7.1 ± 1.0 pg PGE2 /50 ul supernatant
same,calculated PGE2 produced/10^5 BUD-8 cells,[3]; 1 ug/ml,336 pg per 10^5 cells
same,PGE2 in supernatant,[3]; 10 ug/ml,7.5 ± 0.9 pg PGE2 /50 ul supernatant
same,calculated PGE2 produced/10^5 BUD-8 cells,[3]; 25 ug/ml,366 pg per 10^5 cells
same,PGE2 in supernatant,[3]; 100 ug/ml,13.6 ± 4.4 pg PGE2 /50 ul supernatant
same,calculated PGE2 produced/10^5 BUD-8 cells,[3]; 100 ug/ml,850 pg per 10^5 cells
same,PGE2 in supernatant,[3]; 300 ug/ml,23.7 ± 1.5 pg PGE2 /50 ul supernatant
same,calculated PGE2 produced/10^5 BUD-8 cells,[3]; 300 ug/ml,1654 pg per 10^5 cells
same,PGE2 in supernatant,[3]; 750 ug/ml,4.0 ± 0.5 pg PGE2 /50 ul supernatant
same,calculated PGE2 produced/10^5 BUD-8 cells,[3]; 750 ug/ml,82 pg per 10^5 cells
same,inhibition at 1 µg/mL,"[3]; Homo sapiens, Fibroblast, 18 h, 1 ug/ml, read-out: % Effect on PGE2 production",51%
same,inhibition at 10 µg/mL,"[3]; Homo sapiens, Fibroblast, 18 h, 10 ug/ml, read-out: % Effect on PGE2 production",52%
same,inhibition at 25 µg/mL,"[3]; Homo sapiens, Fibroblast, 18 h, 25 ug/ml, read-out: % Effect on PGE2 production",52%
same,inhibition at 100 µg/mL,"[3]; Homo sapiens, Fibroblast, 18 h, 100 ug/ml, read-out: % Effect on PGE2 production",59%
same,inhibition at 300 µg/mL,"[3]; Homo sapiens, Fibroblast, 18 h, 300 ug/ml, read-out: % Effect on PGE2 production",67%
same,inhibition at 750 µg/mL,"[3]; Homo sapiens, Fibroblast, 18 h, 750 ug/ml, read-out: % Effect on PGE2 production",65%
